In ChEMBL document CHEMBL1201862, “PubChem BioAssay data set” (2004):
Active and inactive are the calls of the source.

Legend:
[1] = polyadenylation inhibitors in yeast reporter, dose response, luminescence, S. cerevisiae SKY197-pL101 (AID 2525); type: functional, cell-based
[2] = Luminescence Cell-Based Dose Confirmation HTS to Identify Inhibitors of Polyadenylation.; type: functional
[3] = biological target: T1, Microphthalmia-associated transcription factor (Homo sapiens, UniProt O75030); test: TRPM1 promoter luciferase signal decrease, dose response, MITF inhibitor project, cell-based, SK-MEL-5, cherry-picked, set 3 (AID 493073); type: functional
T1 sequence (O75030 whole entry): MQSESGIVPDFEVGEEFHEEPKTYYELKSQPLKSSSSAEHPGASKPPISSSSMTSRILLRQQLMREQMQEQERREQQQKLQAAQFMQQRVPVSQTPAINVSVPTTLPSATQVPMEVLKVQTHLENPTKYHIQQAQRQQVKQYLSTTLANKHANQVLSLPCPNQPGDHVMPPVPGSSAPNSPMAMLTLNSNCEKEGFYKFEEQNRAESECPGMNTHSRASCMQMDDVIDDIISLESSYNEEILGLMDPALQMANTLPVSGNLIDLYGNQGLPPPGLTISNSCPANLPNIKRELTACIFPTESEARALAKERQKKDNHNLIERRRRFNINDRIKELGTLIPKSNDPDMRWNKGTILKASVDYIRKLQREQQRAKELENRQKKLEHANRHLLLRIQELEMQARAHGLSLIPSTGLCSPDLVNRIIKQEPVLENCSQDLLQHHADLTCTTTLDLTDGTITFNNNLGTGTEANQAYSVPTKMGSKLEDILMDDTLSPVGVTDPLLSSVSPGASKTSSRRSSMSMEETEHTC

[4] = biological target: Heat shock protein HSP 90-alpha (Homo sapiens, UniProt P07900); type: functional, organism-based
[5] = biological target: Genome polyprotein (dengue virus type 2, UniProt P29990); test: Dengue-2 NS5 methyltransferase inhibitors, primary screen, biochemical, confirmation dose response (AID 588689); type: functional
[6] = Luminescence Cell-Based Dose Confirmation HTS to Identify Activators of 5'UTR Stem-Loop Driven Alpha-Synuclein mRNA Translation in H4 Neuroglioblastoma Cells. [Related pubchem assays: 1829 (Project Summary), 1814 (Primary HTS)]; type: functional
[7] = Luminescence Cell-Based Dose Response HTS to Identify Activators of Luciferase Translation or Activity in H4 […] Cells. [Related pubchem assays: 1829 (Project Summary), 1814 (Primary HTS)]; type: functional
[8] = system: H4; test: Luminescence Cell-Based Dose Response HTS to Identify Activators of 5'UTR Stem-Loop Driven Prion Protein mRNA Translation in H4 Neuroglioblastoma Cells. [Related pubchem assays: 1829 (Project Summary), 1814 (Primary HTS)]; type: functional; conditions: Homo sapiens
[9] = inhibitors of intracellular T. cruzi replication, confirmation, NIH3T3 host cells, beta-gal luminescence (AID 2044); type: functional, cell-based;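 further: intracellular parasites grown in NIH/3T3 mouse fibroblasts as host cells; luminescent beta-galactosidase reporter signal from transgenic T. cruzi replicating inside host cells; inhibitors lower the luminescence signal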
[10] = cytotoxicity toward NIH3T3 fibroblasts, dose response, counter-screen, cell-based, ATP luminescence, mouse fibroblasts (AID 2010); type: functional;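 further: cells exposed to compound for about 90 hours before reading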
[11] = biological target: CAAX prenyl protease 2 (Saccharomyces cerevisiae S288c, UniProt Q03530); type: biochemical
[12] = Luminescence Cell-Based Dose Retest to Confirm Inhibitors of Cancer Stem Cells. [Related pubchem assays (depositor defined):AID2717, AID2721]; type: functional; conditions: Homo sapiens
[13] = biological target: Intestinal-type alkaline phosphatase (Homo sapiens, UniProt P09923); test: Dose Response confirmation of uHTS hits from a small molecule inhibitors of human intestinal alkaline phosphatase via a luminescent assay. [Related pubchem assays (depositor defined):AID2544, AID2574]; type: functional
[14] = biological target: T2, Tyrosine-protein phosphatase non-receptor type 7 (Homo sapiens, UniProt P35236); type: functional
T2 sequence (P35236 whole entry): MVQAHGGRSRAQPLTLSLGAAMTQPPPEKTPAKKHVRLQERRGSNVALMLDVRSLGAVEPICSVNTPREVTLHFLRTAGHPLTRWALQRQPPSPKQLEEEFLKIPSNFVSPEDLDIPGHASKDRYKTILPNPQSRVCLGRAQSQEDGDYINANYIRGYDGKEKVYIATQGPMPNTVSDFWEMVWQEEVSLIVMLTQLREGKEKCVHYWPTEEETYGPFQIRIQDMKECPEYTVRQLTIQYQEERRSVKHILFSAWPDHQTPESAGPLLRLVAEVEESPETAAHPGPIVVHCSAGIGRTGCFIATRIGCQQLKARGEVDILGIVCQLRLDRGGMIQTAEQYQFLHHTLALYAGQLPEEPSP

[15] = biological target: Glyceraldehyde-3-phosphate dehydrogenase (Homo sapiens, UniProt P04406)
[16] = biological target: T3, Dual specificity protein phosphatase 6 (Rattus norvegicus, UniProt Q64346)
T3 sequence (Q64346 whole entry): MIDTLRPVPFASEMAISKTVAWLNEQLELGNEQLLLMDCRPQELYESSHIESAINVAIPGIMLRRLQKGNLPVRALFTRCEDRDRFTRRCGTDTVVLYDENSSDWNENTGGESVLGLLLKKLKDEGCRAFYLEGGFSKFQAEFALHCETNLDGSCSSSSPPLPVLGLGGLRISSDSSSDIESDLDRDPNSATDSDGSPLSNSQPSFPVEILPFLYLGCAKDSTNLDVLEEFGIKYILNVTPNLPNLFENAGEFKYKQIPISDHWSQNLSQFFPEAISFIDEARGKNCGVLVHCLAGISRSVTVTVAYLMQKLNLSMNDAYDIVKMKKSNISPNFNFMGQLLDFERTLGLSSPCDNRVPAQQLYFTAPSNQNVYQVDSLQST

[17] = biological target: T3, Dual specificity protein phosphatase 6; type: functional
[18] = biological target: Neurotensin receptor type 1 (Homo sapiens, UniProt P30989); type: functional;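 further: Image-based confirmatory dose-response assay measuring agonist activity at NTR1; NTR1-expressing U2OS osteosarcoma cells imaged for beta-arrestin GFP spot formation; agonist potency where compounds increase beta-arrestin recruitment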
[19] = A549 cell cytotoxicity, dose response, cytotoxicity control, plate reader, cherry-pick, antagonist series (AID 743412); type: functional, cell-based
[20] = HepG2 cell cytotoxicity, dose response, cytotoxicity control, plate reader, cherry-pick, antagonist series (AID 743416); type: functional, cell-based
[21] = LGR2 antagonists, dose response, cell-based, HEK293, CRE-luciferase reporter, cherry pick, set 2 (AID 743343); type: functional;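 further: transfected cells were stimulated with diluted bursicon conditioned medium after compound addition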
[22] = HEK293 cell cytotoxicity, dose response, cytotoxicity control, plate reader, cherry-picked samples (AID 743446); type: functional, cell-based
[23] = biological target: Melanin-concentrating hormone receptor 1 (Homo sapiens, UniProt Q99705); test: Fluorescence-based counterscreen for antagonists of the G-protein coupled receptor 7 (GPR7): cell-based high throughput dose response assay to identify antagonists of the melanin-concentrating hormone receptor 1 (MCHR1).; type: functional
Chain of Melanin-concentrating hormone receptor 1 (Q99705 whole entry): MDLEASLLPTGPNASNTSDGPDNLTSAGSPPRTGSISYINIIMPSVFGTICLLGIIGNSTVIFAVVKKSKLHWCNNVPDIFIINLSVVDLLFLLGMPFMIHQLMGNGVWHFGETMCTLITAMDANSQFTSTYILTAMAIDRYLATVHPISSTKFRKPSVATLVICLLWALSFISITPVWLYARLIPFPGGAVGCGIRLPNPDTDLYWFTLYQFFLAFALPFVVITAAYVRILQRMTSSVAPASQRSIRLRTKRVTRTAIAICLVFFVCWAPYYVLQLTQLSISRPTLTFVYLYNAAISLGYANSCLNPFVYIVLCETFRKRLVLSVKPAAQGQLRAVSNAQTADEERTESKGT

Chain of Intestinal-type alkaline phosphatase (P09923 whole entry): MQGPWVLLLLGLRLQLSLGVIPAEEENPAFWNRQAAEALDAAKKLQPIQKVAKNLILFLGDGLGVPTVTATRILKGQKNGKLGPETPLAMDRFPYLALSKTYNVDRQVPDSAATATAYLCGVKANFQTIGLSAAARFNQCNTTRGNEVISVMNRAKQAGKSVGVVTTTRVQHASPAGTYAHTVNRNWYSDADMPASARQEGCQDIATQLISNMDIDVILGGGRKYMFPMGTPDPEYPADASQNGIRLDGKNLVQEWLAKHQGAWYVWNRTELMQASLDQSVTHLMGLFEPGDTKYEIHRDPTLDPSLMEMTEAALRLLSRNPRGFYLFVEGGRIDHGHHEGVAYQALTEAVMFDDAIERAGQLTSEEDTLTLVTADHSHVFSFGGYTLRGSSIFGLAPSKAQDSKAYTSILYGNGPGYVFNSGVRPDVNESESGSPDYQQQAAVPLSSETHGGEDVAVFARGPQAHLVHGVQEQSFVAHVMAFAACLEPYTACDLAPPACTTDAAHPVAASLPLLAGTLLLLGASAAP
Chain of Genome polyprotein (P29990 2492-3391 limits assumed): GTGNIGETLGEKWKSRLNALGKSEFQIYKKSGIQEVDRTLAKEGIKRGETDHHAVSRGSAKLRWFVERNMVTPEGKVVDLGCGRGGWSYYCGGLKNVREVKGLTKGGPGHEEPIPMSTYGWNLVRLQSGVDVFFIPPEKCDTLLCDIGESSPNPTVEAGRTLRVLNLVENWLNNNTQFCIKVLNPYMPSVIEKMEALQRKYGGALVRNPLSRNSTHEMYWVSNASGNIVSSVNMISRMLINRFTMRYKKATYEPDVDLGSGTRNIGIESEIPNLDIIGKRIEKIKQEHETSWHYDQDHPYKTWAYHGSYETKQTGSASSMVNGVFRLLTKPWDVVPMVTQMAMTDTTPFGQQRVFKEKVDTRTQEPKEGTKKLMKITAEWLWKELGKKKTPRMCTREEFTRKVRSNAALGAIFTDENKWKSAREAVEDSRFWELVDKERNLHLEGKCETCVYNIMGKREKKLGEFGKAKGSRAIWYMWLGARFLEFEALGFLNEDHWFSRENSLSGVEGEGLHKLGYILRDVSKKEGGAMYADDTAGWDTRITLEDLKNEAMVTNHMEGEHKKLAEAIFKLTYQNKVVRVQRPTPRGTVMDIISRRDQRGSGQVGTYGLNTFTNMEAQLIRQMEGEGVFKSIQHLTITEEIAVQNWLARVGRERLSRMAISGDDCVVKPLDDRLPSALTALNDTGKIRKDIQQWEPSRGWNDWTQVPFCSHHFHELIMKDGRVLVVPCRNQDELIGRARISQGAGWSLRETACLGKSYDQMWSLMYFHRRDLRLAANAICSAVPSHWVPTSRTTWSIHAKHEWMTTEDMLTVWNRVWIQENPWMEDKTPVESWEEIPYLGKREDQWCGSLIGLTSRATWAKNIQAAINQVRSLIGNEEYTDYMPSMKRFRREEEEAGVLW
Chain of CAAX prenyl protease 2 (Q03530 whole entry): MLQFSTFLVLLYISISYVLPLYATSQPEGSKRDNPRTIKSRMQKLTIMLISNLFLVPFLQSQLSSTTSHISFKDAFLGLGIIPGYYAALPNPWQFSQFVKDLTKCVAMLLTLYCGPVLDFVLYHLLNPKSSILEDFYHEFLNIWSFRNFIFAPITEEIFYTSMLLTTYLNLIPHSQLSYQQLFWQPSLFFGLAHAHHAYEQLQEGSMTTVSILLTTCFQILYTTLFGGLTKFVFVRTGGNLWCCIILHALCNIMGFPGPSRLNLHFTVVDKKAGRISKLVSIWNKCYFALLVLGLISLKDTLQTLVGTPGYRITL
Chain of Glyceraldehyde-3-phosphate dehydrogenase (P04406 whole entry): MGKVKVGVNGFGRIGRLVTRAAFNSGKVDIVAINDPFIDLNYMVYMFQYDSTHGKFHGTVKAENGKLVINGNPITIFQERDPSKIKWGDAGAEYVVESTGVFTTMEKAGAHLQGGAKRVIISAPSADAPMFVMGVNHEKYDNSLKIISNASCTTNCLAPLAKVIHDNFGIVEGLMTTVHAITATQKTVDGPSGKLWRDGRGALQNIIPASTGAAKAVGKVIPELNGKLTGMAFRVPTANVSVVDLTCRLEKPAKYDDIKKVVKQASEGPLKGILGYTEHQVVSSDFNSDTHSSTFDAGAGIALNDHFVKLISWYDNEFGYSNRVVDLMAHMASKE
Chain of Neurotensin receptor type 1 (P30989 whole entry): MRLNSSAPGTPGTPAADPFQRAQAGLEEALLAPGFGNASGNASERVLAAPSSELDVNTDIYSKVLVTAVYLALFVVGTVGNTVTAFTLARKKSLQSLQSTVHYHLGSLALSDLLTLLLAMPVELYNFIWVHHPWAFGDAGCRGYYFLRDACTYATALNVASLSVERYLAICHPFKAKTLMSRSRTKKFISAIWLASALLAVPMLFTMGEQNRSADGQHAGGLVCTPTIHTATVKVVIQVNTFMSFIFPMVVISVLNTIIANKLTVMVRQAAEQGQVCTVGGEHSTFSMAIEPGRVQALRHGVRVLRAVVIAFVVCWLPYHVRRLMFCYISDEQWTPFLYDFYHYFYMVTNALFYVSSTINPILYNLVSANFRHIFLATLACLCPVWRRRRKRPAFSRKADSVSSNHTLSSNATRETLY

Question: Which EC50 [1] does the source give for `Cc1ccc(C(=O)c2no[n+]([O-])c2C(=O)c2ccc(C)cc2)cc1` here?
Answer: Its EC50 is 3.01 µM (active).

Question: And the EC50 [2]?
Answer: The EC50 was 2.92 µM (active).

Question: What about the AC50 [3] of the same compound?
Answer: Its AC50 is 16.7 µM (active).

Question: What about the AC50 [4] of the same compound?
Answer: Its AC50 is 2.37 µM (active).

Question: What about the IC50 [5] of the same compound?
Answer: Its IC50 is > 100 µM (active).

Question: Which EC50 [6] does the source give for `Cc1ccc2c(c1)sc[n+]2Cc1ccccc1` here?
Answer: Its EC50 is 11.9 µM (active).

Question: What about the EC50 [7] of the same compound?
Answer: The EC50 was 46.1 µM (active).

Question: And the EC50 [8]?
Answer: The EC50 was 68.9 µM (inconclusive).

Question: What about the EC50 [9] of the same compound?
Answer: Its EC50 is 1.87 µM (active).

Question: What about the EC50 [10] of the same compound?
Answer: The EC50 was > 60 µM (not active).

Question: What about the AC50 [11] of the same compound?
Answer: Its AC50 is 18.6 µM (active).

Question: Which results are given for `Cc1ccc(NCc2ccc([N+](=O)[O-])s2)cc1`?
Answer: AC50 [12]: > 195 µM (inactive); IC50 [13]: > 100 µM (inactive)

Question: Which IC50 [14] does the source give for `CCOC(=O)C1Nc2c(O)cccc2C2C=CCC12` (stereo not drawn) here?
Answer: The IC50 was > 100 µM (not active).

Question: What about the IC50 [15] of the same compound?
Answer: The IC50 was > 100 µM (not active).

Question: And the IC50 [16]?
Answer: The IC50 was > 100 µM (inactive).

Question: And the IC50 [17]?
Answer: The IC50 was > 100 µM (inactive).

Question: Which EC50 [18] does the source give for `O=C(Nc1ccc(N2CCN(C(=O)c3ccccc3)CC2)cc1)c1cc2ccccc2o1` here?
Answer: Its EC50 is 24.4 µM (inactive).

Question: And the AC50 [19]?
Answer: Its AC50 is 45.5 µM (active).

Question: What about the AC50 [20] of the same compound?
Answer: Its AC50 is 5.12 µM (active).

Question: And the AC50 [21]?
Answer: Its AC50 is 5.93 µM (active).

Question: And the AC50 [22]?
Answer: Its AC50 is 16.8 µM (active).

Question: For `Cc1ccccc1CC1(CO)CCCN(C(=O)c2cc(Cl)ccc2F)C1` (stereo not drawn), which IC50 [23] is on record?
Answer: The IC50 was > 14.6 µM (not active).
